The values that follow come from PMC8091166 (Journal of the American Chemical Society, 2017).

In data set [1] the test system is KBCP20 cisplatin-resistant cervical cancer cell line. Kind of data set: Cell viability in KBCP20 cells. The data set is classed as cell-based.
Data set [2] deals with HeLa cells. The experiment in a line: Cell viability in the presence of inhibitors. Format: cell-based. To be noted: 15 μM Z-VAD-FMK.
The test system of data set [3] is A549 lung cancer cell line. Kind of data set: Cell viability in A549 cells. Format: cell-based.
The test system of data set [4] is HeLa cells. The experiment in a line: Cell cycle analysis. Format: cell-based.
The test system of data set [5] is PARP, cleaved PARP, LC3, ERK, p-ERK in HeLa cells. Kind of data set: Western blot analysis of protein expression. Format: cell-based. (Immunoblotting shows a protein as a band on a membrane.)
The test system of data set [6] is A2780CP70 cisplatin-resistant ovarian cancer cell line. Kind of data set: Cell viability in A2780CP70 cells. The data set is classed as cell-based.
Data set [7] relates to H460 CisR cisplatin-resistant lung cancer cell line. Kind of data set: Cell viability in H460 CisR cells. The data set is classed as cell-based.
The test system of data set [8] is A2780 ovarian cancer cell line. The experiment in a line: Cell viability in A2780 cells. Format: cell-based.
The test system of data set [9] is KB-3-1 cervical cancer cell line. Kind of data set: Cell viability in KB-3-1 cells. The data set is classed as cell-based.
Data set [10] relates to H460 lung cancer cell line. The experiment in a line: Cell viability in H460 cells. The data set is classed as cell-based.
The subject of data set [11] is A549 CisR cisplatin-resistant lung cancer cell line. The experiment in a line: Cell viability in A549 CisR cells. Format: cell-based.
For data set [12], the system named is HeLa cells. Kind of data set: MTT assay, in vitro anticancer activity in HeLa cells. For orientation: Tetrazolium assays rely on reduction of a dye to a coloured formazan, in cell work by metabolically active cells.
Data set [13] deals with MRC-5 normal lung fibroblasts. Kind of data set: Cell viability in MRC-5 cells. Format: cell-based.
Data set [14] in a line: Capacity factor on a C18 RP-HPLC column. To be noted: isocratic 40:60 MeCN:H2O, 0.1% TFA; for MeCN Complex Capacity Factor: MeCN adduct of the complex. The data set is classed as physicochemical.
The subject of data set [15] is intracellular reactive oxygen species (ROS) in HeLa cells. The experiment in a line: ROS analysis with DCFDA and flow cytometry. The data set is classed as cell-based. To be noted: DCFDA.
Data set [16] deals with HeLa cells. Kind of data set: Annexin V/PI assay. Format: cell-based.
Data set [17] has as its system mitochondrial membrane potential (MMP) in HeLa cells. The experiment in a line: JC-1 assay. Format: cell-based. To be noted: 13 at 5 or 10 μM.

`N.N.[Cl][Pt][Cl]` [Cisplatin, cisplatin]: the IC50 in data set [1] was found to be 36000 ± 7000 nM; in data set [3] it was 3000 ± 1800 nM; in [6] (A2780CP70 cells), 8200 ± 1800 nM; in data set [7] (H460 CisR cells), 3400 ± 1600 nM; in [8] it was 230 ± 70 nM; in [9], 1000 ± 300 nM. Further, the IC50 in [10] worked out at 750 ± 430 nM; in data set [11] (A549 CisR cells) it was 12400 ± 8500 nM; in data set [12] (read-out: 50% growth inhibitory concentration (IC50), MTT assay), 3000 ± 1200 nM; in data set [13], 430 ± 140 nM. In addition, the “change of IC50 in the presence of Z-VAD-FMK” value in data set [2] is “increased by a factor of four”. Besides, the “cell cycle arrest phase” value in data set [4] is recorded as “inhibits cells predominantly in the S-phase”. Besides, in data set [5], the “expression levels of PARP, cleaved PARP, LC3, ERK, p-ERK” value was “induced the increase of cleaved PARP levels”. Further, the “RF (A2780), resistance factor” value in data set [6] (IC50 in A2780CP70 divided by IC50 in A2780) is reported as 36. Further, in data set [7] (IC50 in H460 CisR divided by IC50 in H460), the “RF (H460), resistance factor” value was found to be 4.5. The “RF (A549), resistance factor” value in data set [11] (IC50 in A549 CisR divided by IC50 in A549) came out at 4.1.
For the compound `COC(=O)c1ccnc(-c2cc(C(=O)OC)ccn2)c1.O.[C-]#[O+].[C-]#[O+].[C-]#[O+].[Re+]` [Complex 11], in [14], the “MeCN Complex Capacity Factor” value worked out at 8.2 and the “Aqua Complex Capacity Factor” value came out at 4.2. Also, in [12], the “relative cytotoxicity among the complexes” value was “least active”.
As for `O.[C-]#[O+].[C-]#[O+].[C-]#[O+].[Re+].c1ccc(-c2ccnc3c2ccc2c(-c4ccccc4)ccnc23)cc1` [Complex 14], the “MeCN Complex Capacity Factor” value in [14] is >17. Further, the “relative cytotoxicity among the complexes” value in data set [12] is recorded as “substantially diminished relative to that of 13”.
With `OO` [Complex H2O2, H2O2], the “increase in the intracellular ROS” value in [15] is “greater than 30 fold”.
Consider `COc1cc([C@@H]2c3cc4c(cc3[C@@H](O[C@@H]3O[C@@H]5CO[C@@H](C)O[C@H]5[C@H](O)[C@H]3O)[C@H]3COC(=O)[C@H]23)OCO4)cc(OC)c1O` [etoposide], for which the “effect of pan-caspase inhibitor Z-VAD-FMK in the annexin V assay” value in data set [16] is recorded as “reduce the apoptotic population”.
As for “carbonyl cyanide m-chlorophenyl hydrazine [CCCP]”, the “depolarization of the MMP (JC-1 aggregates)” value in data set [17] was “substantial reduction in the number of JC-1 aggregates”.
